Measurements from US20210046195A1, “FORMULATION AND METHOD OF PREPARATION” (GE HEALTHCARE AS, priority 2018, published 2021).
Bridge positions count the residues as written; N and C are the ends. Cy5∗∗ = not defined here

What was measured:
mouse cMet/Fc chimera = molecular target: T1, mouse cMet/Fc chimera (Mus musculus, UniProt P16056); assay: In vitro fluorescence polarisation assay, mouse cMet; assay type: binding; conditions: dye-labelled peptide 20 nM; mouse cMet/Fc chimera 0-150 nM (tested range)
T1 construct: Fc (immunoglobulin Fc fusion partner); purchased R&D Systems
Experimental: The principle of the fluorescence polarisation method can briefly be described as follows:
Monochromatic light passes through a […] polarizing filter and excites fluorescent molecules in the sample. Only those molecules that oriented properly in the vertically polarized plane adsorb light, become excited, and subsequently emit light. The emitted light is measured in both horizontal and vertical planes. The anisotropy value (A), is the ratio between the light intensities following the equation:
A=(Intensity with horizontal polarizer−Intensity with vertical polarizer)/(Intensity with horizontal polarizer+2* Intensity with vertical polarizer).
The fluorescence anisotropy measurements were performed in 384-well microplates in a volume of 10 μL in binding buffer (PBS, 0.01% Tween-20, pH 7.5) using a Tecan Safire fluorescence polarisation plate reader (Tecan, US) at ex646/em678 nm. The concentration of dye-labelled peptide was held constant (20 nM) and the concentrations of the human or mouse cMet/Fc chimera (R&D Systems) or Semaphorin 6A (R&D Systems) were varied from 0-150 nM. Binding mixtures were equilibrated in the microplate for 10 min at 30° C. The observed change in anisotropy was fit to the equation: […]

HCT-15 tumours = assay: In vivo testing in HCT-15 tumour-bearing nude mice, fluorescence imaging through laparoscope; set-up: species or system BALB c/A nude (Bom) mice; conditions: 1 nmol per animal i.v.; excised tumour slice against normal colon
Source text: 54 Female BALB c/A nude (Bom) mice were used in the study. The use of the animals was approved by the local ethics committee. BALB c/A nude is an inbred immunocompromised mouse strain with a high take rate for human tumours as compared to other nude mice strains. The mice were 4 weeks old upon arrival and with a body weight of approx. 20 grams at the start of the study. The animals were housed in individually ventilated cages (IVC, Scanbur BK) with HEPA filtered air. The animals had ad libitum access to “Rat and Mouse nr. 3 Breeding” diet (Scanbur BK) and tap water acidified by addition of HCl to a molar concentration of 1 mM (pH 3.0).
The colon cancer cell HCT-15 is derived from human colon carcinomas and is reported to express cMet according to Zeng et al [Clin. Exp. Metastasis, 21, 409-417. (2004)]. The cell line was proven to be tumorigenic when inoculated subcutaneously into nude mice [Flatmark et al, Eur. J. Cancer 40, 1593-1598 (2004)]. […]
Imaging was performed through a clinical laparoscope adapted to use a light source to excite the reporter and a filtering system to extract the fluorescence component. […]
Standard exposure time for colon imaging was 10 s. […] The images were visually scored using the standard scoring system employed for receiver operating characteristic analysis.

T1 sequence (P16056 with tags, fused parts or gaps limits assumed): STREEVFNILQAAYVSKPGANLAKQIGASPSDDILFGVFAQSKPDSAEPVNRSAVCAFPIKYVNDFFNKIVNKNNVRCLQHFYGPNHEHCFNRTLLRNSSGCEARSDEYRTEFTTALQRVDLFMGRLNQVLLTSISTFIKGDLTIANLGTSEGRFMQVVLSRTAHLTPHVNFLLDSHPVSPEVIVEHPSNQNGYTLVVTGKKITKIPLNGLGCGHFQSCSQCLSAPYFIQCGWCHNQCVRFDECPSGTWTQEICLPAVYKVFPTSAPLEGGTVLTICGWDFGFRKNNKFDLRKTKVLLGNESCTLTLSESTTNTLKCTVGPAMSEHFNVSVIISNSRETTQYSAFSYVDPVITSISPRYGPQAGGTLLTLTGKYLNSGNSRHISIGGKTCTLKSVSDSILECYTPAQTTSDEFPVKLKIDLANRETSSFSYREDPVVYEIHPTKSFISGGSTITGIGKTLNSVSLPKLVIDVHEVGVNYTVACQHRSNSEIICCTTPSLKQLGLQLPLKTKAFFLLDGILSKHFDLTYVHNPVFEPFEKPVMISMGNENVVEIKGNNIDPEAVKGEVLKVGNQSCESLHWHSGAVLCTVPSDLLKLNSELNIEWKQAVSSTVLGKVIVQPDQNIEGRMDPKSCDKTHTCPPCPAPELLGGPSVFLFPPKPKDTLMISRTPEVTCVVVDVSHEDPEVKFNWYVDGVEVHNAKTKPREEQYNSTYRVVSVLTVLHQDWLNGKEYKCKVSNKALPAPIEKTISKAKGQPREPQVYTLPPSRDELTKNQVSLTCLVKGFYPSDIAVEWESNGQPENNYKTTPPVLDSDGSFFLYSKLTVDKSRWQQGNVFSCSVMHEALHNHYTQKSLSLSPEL
T1 sequence (P16056 25-306 limits assumed, change not shown): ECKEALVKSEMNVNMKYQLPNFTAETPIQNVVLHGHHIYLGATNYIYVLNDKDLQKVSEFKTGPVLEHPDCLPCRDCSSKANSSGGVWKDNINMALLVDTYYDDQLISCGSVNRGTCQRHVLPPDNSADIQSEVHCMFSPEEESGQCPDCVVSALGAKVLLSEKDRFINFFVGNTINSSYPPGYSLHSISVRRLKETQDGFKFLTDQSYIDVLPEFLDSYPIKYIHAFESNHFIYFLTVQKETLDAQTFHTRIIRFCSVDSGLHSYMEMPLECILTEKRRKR

Substance	binding to mouse cMet (mouse cMet/Fc chimera)	tumour to normal ratio (HCT-15 tumours)	visual identification of tumour against background (HCT-15 tumours)
Cys4-16, 6-14; Ac-Ala-Gly-Ser-Cys-Tyr-Cys-Ser-Gly-Pro-Pro-Arg-Phe-Glu-Cys-Trp-Cys-Tyr-Glu-Thr-Glu-Gly-Thr-Gly-Gly-Gly-Lys(Cy5)-NH2 (Ac-AGSCYCSGPPRFECWCYETEGTGGGK(Cy5)-NH2; disulfide 6-14, 4-16) [Compound 3]	no binding		
Ac-TGECTCPYWEFRPCECGSYSGAGGGK(ϵ-Cy5**)-NH2 (Ac-TGECTCPYWEFRPCECGSYSGAGGGK(Cy5∗∗)-NH2; cysteine pairing not given here; reading uncertain; also: printed as Ac-TGECTCPYWEFRPCECGSYSGAGGGK(ϵ-Cy5**)-NH2) [Compound 7, negative control]		did not discriminate between tumour and background	nothing was discernible against background
